Test results: patent publication US20250082658A1, “CELL PROLIFERATION RETARDANT, COSMETIC CONTAINING SAME, AND CELL PROLIFERATION RETARDATION METHOD” (NATIONAL UNIVERSITY CORPORATION KAGAWA UNIVERSITY, priority 2022, published 2025)

Legend:
cancer cell lines = details: reported (NPL 5); cited from earlier work
U251 cells [1] = assay: Apoptosis by flow cytometry after annexin V staining, U251; type: cell-based, human; details: doses that induce growth inhibition, 48 hours
Procedure: (§1) The proportion of apoptotic cells in medium alone (control) and 48 hours after administration of D-glucose or D-allose was compared by flow cytometry analysis of the cells stained with annexin V. In order to elucidate the mechanism of the growth inhibition effect on brain tumor cells by D-allose, the cells were evaluated for apoptosis by flow cytometry after annexin V staining (FIG. 2).

U87 cells [2] = assay: Cell cycle evaluation by PI/RNase flow cytometry, U87; type: cell-based, human; details: 50 mM, 24 hours
Procedure: (§2) The proportion of cells in each cell cycle in medium alone (control) and 48 hours after administration of D-glucose or D-allose was compared by flow cytometry analysis.
(§3) Considering the possibility that growth inhibition of brain tumor cells may be caused by arrest of the cell cycle by D-allose, flow cytometry (FACS analysis) was carried out to identify changes in the cell cycle (see Yamaguchi F, Takata M. Kamitori K, et al. Rare sugar D-allose induces specific up-regulation of TXNIP and subsequent G1 cell cycle arrest in hepatocellular carcinoma cells by stabilization of p27kip1. Int J Oncol. 2008; 32(2):377-385). Specifically, the cell cycle was evaluated by Propidium Iodide (PI)/RNase Staining Solution (Cell Signaling Technology). The cells were cultured for 24 hours using DMEM, 50 mM D-glucose or 50 mM D-allose. The cultured cells were then recovered using trypsin and washed twice with PBS, and then fixed with 70% ethanol overnight at −20° C. After washing with PBS, the cells were stained in a dark room at room temperature for 30 minutes using 500 μl of PI reagent, washed with PBS, and then monitored for luminescence at 617 nm by flow cytometry. The data were analyzed using Kaluza analysis software (Ver. 1.2. Beckman Coulter), and the effects on the cell cycle were evaluated based on changes in the cell distribution rate at each phase of the cell cycle.

PK-1 cells = assay: WST-1 cell proliferation assay, PK-1; type: cell-based, human; details: 48 hours
Procedure: PK-1 cells, as cultured human pancreatic cancer cells, were cultured for 48 hours with addition of D-allose or D-glucose at 25 or 50 mM concentration, and then analyzed by WST-1 assay to compare the effects on cell proliferation. PK-1 cells, as cultured human pancreatic cancer cells, were cultured for 48 hours with addition of allitol or D-mannitol at 50 mM concentration, and then analyzed by WST-1 assay to compare the effects on cell proliferation.

brain tumor cells = assay: CytoTell fluorogenic probe cell proliferation monitoring; type: cell-based, human; details: 50 mM; 96 hours after 24 hours probe uptake
Procedure: Next, CytoTell™, a fluorogenic probe for flow cytometry which is recently being used as a cell proliferation monitoring reagent, was taken up into the brain tumor cells for 24 hours, and the cells were allowed to stand for 96 hours either without administration of a sugar (control) or with administration of 50 mM D-glucose and 50 mM D-allose, and attenuation of the fluorogenic probe intensity in the cells was evaluated (FIG. 4-1).

U251 cells [3] = assay: Cell cycle evaluation by PI/RNase flow cytometry, U251; type: cell-based, human; details: 50 mM, 24 hours
Procedure: as §2, §3

U251 cells [4] = assay: WST-1 cell proliferation assay, U251; type: cell-based, human; details: 48 hours, 3, 5, 10, 30 or 50 mM
Procedure: (§4) The cell proliferation ability in medium alone (control) and 48 hours after administration of D-glucose or D-allose was compared by WST-1 assay. U251 cells or U87 cells, as cultured human brain tumor cells, were cultured for 48 hours without administration of a sugar (control) or with addition of D-allose or D-glucose at different concentrations (3, 5, 10, 30 or 50 mM), and then analyzed by WST-1 assay to compare the effects on cell proliferation.

U87 cells [5] = assay: WST-1 cell proliferation assay, U87; type: cell-based, human; details: 48 hours, 3, 5, 10, 30 or 50 mM
Procedure: as §4

U87 cells [6] = assay: Apoptosis by flow cytometry after annexin V staining, U87; type: cell-based, human; details: doses that induce growth inhibition, 48 hours
Procedure: as §1

[7] = system: glycolysis in cultured human PK-1 pancreatic cancer cells; assay: Glycolysis evaluation with XFe24 extracellular flux analyzer (OCR, ECAR); type: cell-based
Text: In the same manner as Example 2, an XFe24 extracellular flux analyzer (24-well) by Agilent Technologies (previously Seahorse Bioscience) was used to measure the oxygen consumption rate (OCR value) and extracellular acidification rate (ECAR value) of cultured human PK-1 pancreatic cancer cells and examine effects on the glycolysis.

cell cycle = details: reported (PTL 1); cited from earlier work
[8] = system: human pancreatic cancer cells PK-1; assay: Metabolome analysis of central energy metabolism (C-SCOPE), PK-1; type: cell-based; details: 50 mM, 12 hours
Procedure: (§5) Cultured human pancreatic cancer cells PK-1 and PANC-1 (5.0×10^6) were cultured for 12 hours at 37° C. in a 5% CO2 atmosphere, either without addition of a sugar (control) or with addition of 50 mM D-glucose or D-allose. Samples of both cells were then prepared according to the protocol provided by Human Metabolome Technologies, Inc. (Tsuruoka City, Yamagata Prefecture. Japan) and measured for 116 substances (see Table 1) related to central energy metabolism (glycolysis, TCA cycle, amino acid metabolism and nucleic acid metabolism) using an Analysis Service provided by the same company (C-SCOPE (https://humanmetabolome.com/jpn/service/analysis/cscope/)), after which principal component analysis (PCA) (FIG. 15), heat map analysis (FIGS. 16 to 19) and pathway map analysis (FIG. 20) were carried out based on the measurement results.

[9] = system: PK-1 pancreatic cancer cells; assay: Apoptosis by flow cytometry with annexin V staining, PK-1; type: cell-based, human; details: 50 mM
Procedure: Apoptosis was evaluated by flow cytometry using annexin V staining.

[10] = system: PK-1 pancreatic cancer cells; assay: Cell cycle evaluation by PI/RNase flow cytometry, PK-1; type: cell-based, human; details: 50 mM
Procedure: Considering the possibility that the growth inhibition effect on cultured human PK-1 pancreatic cancer cells by D-allose may be via arrest of the cell cycle, changes in the cell cycle were identified using flow cytometry (FACS analysis). Specifically, PK-1 cells were brought to a serum-starved state overnight and then fixed with 70% ethanol overnight at −20° C. For staining of the cellular DNA, the cells obtained as a centrifuged pellet were resuspended in 450 μL of propidium iodide (PI)/RNase solution (Cell Signaling Technology, Danvers, MA, USA), and cultured in a dark environment at room temperature for 30 minutes. Analysis was then carried out with a flow cytometer (Cytomics FC500 flow cytometry system, Beckman Coulter, Indianapolis, IN, USA) using 10,000 cells per sample.

[11] = system: cultured human PK-1 pancreatic cancer cells; assay: Cell cycle time course after nocodazole arrest and release, PK-1; type: cell-based; details: 50 mM, after removal of 50 nM nocodazole (12 hours)
Procedure: Culturing was carried out for 12 hours in the presence of 50 nM nocodazole, and the cell cycle was arrested. The nocodazole was removed to restart the cell cycle, while administering medium alone (control) or D-glucose or D-allose (50 mM), after which samples were periodically taken and the cell cycle ratio was analyzed by flow cytometry.
Shown is the cell cycle ratio (G0/1 phase, S phase and G2/M phase) for cultured human pancreatic cancer cells PK-1 cultured with the schedule in FIG. 8.
Culturing was carried out according to the schedule in FIG. 8, except for administering D-mannitol or allitol instead of D-glucose or D-allose.
First, 50 nM of nocodazole was reacted with cultured human PK-1 pancreatic cancer cells for 12 hours to preemptively stop the cell cycle. The nocodazole was then removed from the culture solution to begin restart of the cell cycle, thus allowing periodic observation of the cell cycle from a reset state. The effect of D-allose on the speed of the cell cycle was investigated in detail under these experimental conditions.
Considering the possibility that the growth inhibition effect on cultured human PK-1 pancreatic cancer cells by allitol may be via arrest of the cell cycle, changes in the cell cycle were identified using flow cytometry (FACS analysis) by the same method as Example 2.

[12] = system: human pancreatic cancer cells PANC-1; assay: Metabolome analysis of central energy metabolism (C-SCOPE), PANC-1; type: cell-based; details: 50 mM, 12 hours
Procedure: as §5

[13] = system: human pancreatic cancer cell line PK-1; assay: Cell cycle visualization with tFucci(CA)5, PK-1; type: cell-based; details: 50 mm, 0 to 84 hours
Text: The human pancreatic cancer cell line PK-1 was transfected with tFucci(CA)5 (Plasmid #153521) (see Ando R., et al., Two new coral fluorescent proteins of distinct colors for sharp visualization of cell-cycle progression, bioRYiv, 2020, https://www.biorxiv.org/content/10.1101/2020.03.30.015156v2) purchased from Addgene (Massachusetts, USA), for cell cycle visualization. […] The cells were used to observe effects on the cell cycle of the human pancreatic cancer cell line PK-1 with and without addition of D-allose (50 mm).

[14] = known (PTL 2); cited from earlier work

For `O=C[C@H](O)[C@H](O)[C@H](O)[C@H](O)CO` [D-allose], the “proliferation of cancer cell lines” value (cancer cell lines) is given as “can inhibit proliferation of cancer cell lines”, the “induction of apoptosis (annexin V)” value (U251 cells [1]) is given as “apoptosis is not induced” and the “arrest of the cell cycle” value (U87 cells [2]) is given as “did not induce arrest of the cell cycle”. For the same compound, the “cell proliferation (WST-1)” value (PK-1 cells; 25 or 50 mM) was “exhibited a cell growth inhibitory effect”, the “attenuation of fluorogenic probe intensity in the cells” value (brain tumor cells) was “notably inhibited attenuation of fluorescent probe intensity” and the “arrest of the cell cycle” value (U251 cells [3]) was “did not induce arrest of the cell cycle”. For the same compound, the “cell proliferation ability (WST-1)” value (U251 cells [4]) was “dose-dependent cell growth inhibitory effect”, the “cell proliferation ability (WST-1)” value (U87 cells [5]) was “dose-dependent cell growth inhibitory effect” and the “induction of apoptosis (annexin V)” value (U87 cells [6]) was “apoptosis is not induced”. The “glycolysis in the cells” value ([7]; 50 mM for 16 hours) was “notably inhibited the glycolysis”, the “glycolytic capacity, or its reserve capacity” value ([7]; 50 mM for 16 hours) was “lowered” and the “G2 phase of the cell cycle” value (cell cycle) was “delaying the “G2 phase” of the cell cycle”. For the same compound, the “fructose 1,6-diphosphate” value [8] was “reducing”, the “fructose 1-phosphate in the polyol pathway” value [8] was “increased” and the “fructose 6-phosphate in the glycolysis” value [8] was “increased”. For the same compound, the “glucose 6-phosphate in the glycolysis” value [8] was “increased”, the “intracellular metabolic profile (PCA, heat map)” value [8] was “significantly altered intracellular metabolic profile” and the “apoptosis (annexin V)” value [9] was “apoptosis was not produced”. The G0/G1 phase ratio [10] was “slight increase”, the “transition from the G0/1 phase to the S phase” value [11] was “significant delaying of transition from the G0/I phase to the S phase” and the “transition to the G2/M phase” value [11] was “This delaying effect was also exhibited for transition to the G2/M phase”. For the same compound, the “fructose 1,6-diphosphate” value [12] was “reducing”, the “fructose 1-phosphate in the polyol pathway” value [12] was “increased” and the “fructose 6-phosphate in the glycolysis” value [12] was “increased”. For the same compound, the “glucose 6-phosphate in the glycolysis” value [12] was “increased”, the “intracellular metabolic profile (PCA, heat map)” value [12] was “significantly altered intracellular metabolic profile” and the “effect on the cell cycle (tFucci(CA)5 fluorescence microscopy)” value [13] was “delay the cell cycle, primarily at transition from the G1 phase to the S phase”.

In the case of `OC[C@@H](O)[C@@H](O)[C@@H](O)[C@@H](O)CO` [allitol, (2S,3S,4R,5R)-hexane-1,2,3,4,5,6-hexaol], the “cell proliferation (WST-1)” value (PK-1 cells; 50 mM) is listed as “exhibited a cell proliferation inhibiting effect”, the fat accumulation [14] is listed as “fat accumulation-inhibiting effect” and the “glycolysis in the cells” value ([7]; 50 mM for 18 hours) is listed as “inhibited the glycolysis”. For the same compound, the “glycolytic capacity, or its reserve capacity” value ([7]; 50 mM for 18 hours) was “significantly lowered”, the “apoptosis (annexin V)” value [9] was “no apoptosis had occurred” and the “transition from the G0/1 phase to the S phase” value [11] was “significantly delayed the transition from the G0/1 phase to the S phase”. The “transition to the G2/M phase” value [11] was “This delaying effect was also exhibited for transition to the G2/M phase”.
